Measurements taken from patent publication US20090105149A1, “Compounds comprising lpa” (ENKAM PHARMACEUTICALS A/S, priority 2003, published 2009).
Marks after values point to notes of the source that are not given here.

Assays:
hippocampal neurons [1] = test: Survival of hippocampal neurons exposed to Aβ25-35; assay type: cell-based, rat; settings: for Neuronal Survival (% of Control): β-amyloid, Hippocampal (E19)
Description: For the experiments dissociated hippocampal neurons were isolated from Wistar rat embryos at embryonic day 19 or newborn rats as described by Rønn et al. (1999) Nat. Biotechnol. 17:1000-5.
Briefly, hippocampus was isolated from the brain in ice cold modified Krebs Ringer solution, cleared of blood vessels, roughly homogenised by chopping and then trypsinised. The dissociated cells were washed in the presence of DNAse 1 and soybean trypsin inhibitor.
For the assay neurons were plated at a density of 40,000 cells/cm^2 on 8-well permanox slides coated with 10 μg/ml poly-L-lysine in Neurobasal medium. 15 minutes after plating, Aβ25-35 was added to a final concentration of 20 μM. The Aβ25-35 had prior to plating been dissolved in sterile deionized water to a concentration of 3 mM and incubated at 37° C. for four days according to Pigino et al. (2001) J. Neurosci. 21:834-42. This treatment induces fibrillation of the Aβ-peptide fragment, thereby increasing its neurotoxic activity. The neurons were incubated with Neurobasal medium containing the FGL peptide for 70 hours, fixed with 4% (v/v) formaldehyde, and stained with Hoechst 33258 for 25 minutes as described by Kruman et al. (1997). Images of 1000-1500 neurons were randomly recorded for each group in each experiment using computer assisted fluorescence microscopy as described for the hippocampal neurite outgrowth assay. Nuclei from dead and live neurons were counted using the software package Prima developed at the Protein Laborator, Copenhagen University, and the fraction of live neurons relative to the total number of neurons was estimated.

hippocampal neurons [2] = test: FM 1-43 destaining (presynaptic vesicle turnover) in hippocampal neurons; assay type: cell-based, rat
Description: The values were compared using an unpaired t-test. *p=0.04 (1 h) and **p=0.0032 (48 h). FGLcontrol is a control peptide consisting the sequence […] (SEQ ID NO: 147).
The effects of FGLd on vesicle turnover was estimated in primary cultures of hippocampal neurons from embryonic rats (E19). The cultures were prepared as above. Following 13-16 days in vitro, FGLd was added to the cultures and incubated for 1, 24 or 48 hours. After 48 hours of incubation, the FGFR-inhibitor (SU 5402) was added simultaneously with FGLd to some of the cultures.
After treatment with FGLd the neurons were labeled with the fluorescent membrane probe FM 1-43 as described by Kiryushko et al (2003) J Biol. Chem. 278:12325-34. The rate of FM 1-43 release (destaining of cells) evoked by depolarisation with 90 mM potassium was then evaluated by a time-lapse image acquisition using the Radiance 2000 scanning system and a Nikon eclipse TE200 confocal microscopy.

[3] = test system: rats treated with (25-35) β-amyloid fragment; test: Light-dark Discriminating Y-maze with positive food reinforcement; assay type: in vivo, rat
Description: The present study employed a rat model, in which neurotoxicity and cognitive impairment were induced by the (25-35) β-amyloid peptide fragment (see Maurice T., et al. (1996) (Brain Res. 706:181-93) and Delobette S., et al. (1997) Eur J Pharmacol. 319:1-4). Short-term memory deficit induced by the (25-35) β-amyloid peptide fragment in rat is of special importance to study, as it resembles one of the clinical manifestations of Alzheimer's disease. Short-term memory deficit in rats was evaluated using three different behavioural tests: the Social Recognition (Kogan et al, (2000) Hippocampus 10:47-56), Open Field (Cerbone and Sadile, (1994) Neurosci Biobehav Rev. 18:497-518; Vianna et al, (2000) Learn Mem. 7:333-40) and Y-maze (Clayton & Williams, (2000) Neurobiol Learn Mem. 74:135-45) tests. […]
Behaviour of animals was evaluated using the Social Recognition test, the Open Field test or the Light-dark Discriminating γ-maze. On day 28-30 or day 51 after i.c.v. administration of the (25-35) β-amyloid fragment, the animals were sacrificed, and in selected studies, the brain tissue was collected, histological sections were immunostained with A-β specific antibodies and the amyloid-burden was calculated as a percentage of the A-βpositive area. In addition, the number of neurons in selected areas of brain-sections was calculated using a stereological approach.

rat pups [4] = test: Surface Righting Reflex in rat pups; assay type: in vivo; settings: intranasal 2.6 μg per pup at PND 1, 2, 3
Description: The number of litters of each treatment group was six. […] FGLcontrol as above.
Dose-Response study. The effect of intranasal administration of 0.026, 0.26 and 2.6 μg FGLd per day at post-natal day (PND) 1, 2 and 3 on performance of the Surface Righting Reflex by rat pups was evaluated.
(§1) Sensory Motor Control Development study.

rat pups [5] = test: Negative Geotaxis Reflex in rat pups; assay type: in vivo; settings: PND 6; intranasal 2.6 μg per pup at PND 1, 2, 3
Description: The number of litters of each treatment group was six. The results were analysed using one-way ANOVA (FPND6=5.14; PPND6=0.008). […] FGLcontrol as above.
as §1

rats = test: Morris Water Maze test; assay type: in vivo, rat
Description: In the Morris Water Maze test, rats are evaluated in the spatial training task to find a hidden platform in order to escape swimming in the water.
In the Morris Water Maze study, rats were pre-trained to locate a hidden platform by daily training for 120 seconds for five days (days−4 to 0) before the experiment. On days 1 and 2, rats were given 3 consecutive trials in which the platform location remained constant. The time during which the rats were able to locate the platform was recorded within a maximum test-period of 120 seconds. The rats received a 5 μl injection of the FGLd peptide (5 μg), the control peptide (5 μg), or the vehicle solution immediately after each training trial on days 1 and 2.
The animals were tested 24 hours (day 3) and 7 days (day 10) after training. Fourteen days after training (day 17), the location of the platform was changed. Rats were trained to find a new location of the platform in three consecutive trials (“reversal learning”). In total, 48 animals were evaluated. Animals were divided into three groups consisting of 12-18 rats per treatment group.

## FGLd: MAP-type dendrimer of FGL; dendrimeric tetramer of the FGL peptide (EVYVVAENQQGKSKA)
Hippocampal neurons [1]; at 0.3 μg/ml, 20 μM Aβ25-35, Aβ25-35-treated controls = 100%
  neuroprotection of hippocampal neurons, maximal level: 110%
Hippocampal neurons [1]; 0.01 μg/mL
  Neuronal Survival (% of Control): 109%** % of Control
Hippocampal neurons [1]; 3 μg/mL
  Neuronal Survival (% of Control): 107%** % of Control
Hippocampal neurons [1]; 9 μg/mL
  Neuronal Survival (% of Control): 107%** % of Control
Hippocampal neurons [2]; 5 μg/ml for any time period
  rate of FM 1-43 unloading: Neither treatment with 5 μg/ml FGLd for any time period, nor the treatment with 20 μg/ml for 24 hours had any effect
Hippocampal neurons [2]; 20 μg/ml for 1 h, control 0.008
  rate of FM 1-43 destaining: 0.016 s⁻¹
Hippocampal neurons [2]; 20 μg/ml for 24 h
  rate of FM 1-43 destaining: did not result in a significant effect
Hippocampal neurons [2]; 20 μg/ml for 48 h, control 0.013
  rate of FM 1-43 destaining: 0.028 s⁻¹
[3]; day 25, last day of training, sub-occipital, β-amyloid control 3.8
  number of errors: 1.7
[3]; training days 21-24, vs β-amyloid fragment-treated control
  number of errors: no significant differences
Rat pups [4]; PND4, P<0.05
  Surface Righting Reflex test, significance vs control and FGLcontrol groups: statistically significant effect
Rat pups [4]; PND 5, vehicle 3.4
  Surface Righting Reflex performance: 1.3 s
Rat pups [5]
  Negative Geotaxis Reflex test, significance vs control and FGLcontrol groups: statistically significant effects
rats; day 2, 5 μg after training, untreated rats 93.0 s
  time to locate the platform: 65.8 s
rats; day 17
  time to locate the platform (reversal learning): statistically significant
